Measured values reported in patent US4347371A, “Disulfide compounds” (Santen Pharmaceutical Co., Ltd., priority 1978, dated 1982).
Read-outs that look alike come from different tables or passages of the source.

What was measured:
Aldose reductase = biological target: T1, Aldose reductase (Rattus norvegicus, UniProt P07943); test: Inhibitory activity against aldose reductase purified from rat lenses (absorbance at 340 nm); format: biochemical
T1 construct: Aldose reductase is purified from rat lenses; from tissue; host or cells: rat lens

[1] = tested on: angiotensin I-converting enzyme; test: Suppressive effect on the pressor response to angiotensin I in unanesthetized rats, oral administration (angiotensin I-converting enzyme inhibition); format: in vivo, Male Wistar strain rats; conditions: rat, angiotensin I 300 ng/kg i.v.
Experimental: As recently it has been clear that the compounds inhibiting angiotensin I-converting enzyme may be the curative potency against both renal hypertension and essential hypertension, the compounds [I] of this invention are evaluated as antihypertensive agents by the following method.
Male Wistar strain rats weighing 200-300 g were used. Under ether anesthesia, polyethylene cannulae are inserted into carotid artery and jugular vein. The cannula to carotid artery is connected to an electric transducer, while the cannula to jugular vein is connected to an apparatus for continuous infusion. After the complete recovery from anesthesia, angiotensin I is infused intravenously in a dose of 300 ng/kg by the apparatus for continuous infusion, and the pressor response is recorded by polygraph (Nihon Koden, RM-150). The compounds of this invention suspended in 0.5% tragacanth solution are administered orally in a dose of 0.3 ml per 100 g of body weight, and the pressor response to angiotensin I infused intravenously is measured with time.

[2] = Acute toxicity test in mice, oral; parameters: species or system male ddy-std. strain mice; conditions: mouse, in vivo, male ddy-std. mice, 0.5% tragacanth suspension
Experimental: The male ddy-std. strain mice (4 weeks of age, weighing 19-21 g) were placed in a breeding room of constant temperature and humidity (23°±1° C., 55±5%) and fed freely pellet diet (CE-2, Clea Japan, Inc.) and water ad. libitum for a week. The mice showing the normal growth were selected for the experiment.
Test compound is suspended in 0.5% tragacanth solution, and administered orally in a dose of 0.5 ml per 20 g B.W.

[3] = pH 6.2, DL-glyceraldehyde 4×10^-4 M, NADPH 5×10^-5 M, read-out: IC50 (molar concentration producing 50% inhibition of aldose reductase)

SMILES: C[C@H](CSSC[C@@H](C)C(=O)N1C(c2cc(Cl)ccc2O)SC[C@H]1C(=O)O)C(=O)N1C(c2cc(Cl)ccc2O)SC[C@H]1C(=O)O (stereo partly drawn) [Compound 11, (4R,4'R)-3,3'-[3,3'-dithiobis[(2S)-2-methylpropanoyl]]bis[2-(5-chloro-2-hydroxyphenyl)-4-thiazolidinecarboxylic acid]]
- IC50 (Aldose reductase; [3]): 640 nM

SMILES: O=C(O)[C@@H]1CSC(c2ccccc2O)N1C(=O)CCCSSCCCC(=O)N1C(c2ccccc2O)SC[C@H]1C(=O)O (stereo partly shown) [Compound 4]
- IC50 (Aldose reductase; [3]): 96 nM

SMILES: Cc1ccc(C2SC[C@@H](C(=O)O)N2C(=O)[C@H](C)CSSC[C@@H](C)C(=O)N2C(c3ccc(C)cc3)SC[C@H]2C(=O)O)cc1 (stereo partly drawn) [Compound 8, (4R,4'R)-3,3'-[3,3'-dithiobis[(2S)-2-methylpropanoyl]]bis[2-(4-methylphenyl)-4-thiazolidinecarboxylic acid]]
- IC50 (Aldose reductase; [3]): 450 nM

SMILES: O=C(O)[C@@H]1CSC(c2ccccc2O)N1C(=O)CSSCC(=O)N1C(c2ccccc2O)SC[C@H]1C(=O)O (stereo partly shown) [Compound 15]
- IC50 (Aldose reductase; [3]): 310 nM

SMILES: O=C(O)C1CCC(c2ccccc2O)N1C(=O)CCS (single isomer, unassigned) [Compound 27A, α-(+)5-(2-hydroxyphenyl)-1-(3-mercaptopropanoyl)-2-pyrrolidinecarboxylic acid, reference compound]
- Inhibition (%) of pressor response to angiotensin I ([1]; dose 1.3 mg/kg oral, 25 min): 70%
- Inhibition (%) of pressor response to angiotensin I ([1]; dose 1.3 mg/kg oral, 65 min): 50%

SMILES: C[C@H](CS)C(=O)N1CSC[C@H]1C(=O)O [Compound 43A, (4R)3-[(2S)-3-mercapto-2-methylpropanoyl]-4-thiazolidinecarboxylic acid, reference compound]
- Inhibition (%) of pressor response to angiotensin I ([1]; dose 1.0 mg/kg oral, 25 min): 50%
- Inhibition (%) of pressor response to angiotensin I ([1]; dose 1.0 mg/kg oral, 65 min): 30%

SMILES: O=C(O)[C@@H]1CSC(c2ccccc2O)N1C(=O)CCSSCCC(=O)N1C(c2ccccc2O)SC[C@H]1C(=O)O (stereo partly drawn) [Compound 1, (4R,4'R)-3,3'-[3,3'-Dithiobis(propanoyl)]bis[2-(2-hydroxyphenyl)-4-thiazolidinecarboxylic acid]]
- LD50 [2]: 15000 mg/kg
- Inhibition (%) of pressor response to angiotensin I ([1]; dose 1.0 mg/kg oral, 25 min): 45%
- Inhibition (%) of pressor response to angiotensin I ([1]; dose 1.0 mg/kg oral, 65 min): 55%
- IC50 (Aldose reductase; [3]): 97 nM

SMILES: C[C@H](CS)C(=O)N1C(c2ccccc2O)SC[C@H]1C(=O)O (stereo partly drawn) [Compound 2A, (4R)2-(2-hydroxyphenyl)-3-[(2S)-3-mercapto-2-methylpropanoyl]-4-thiazolidinecarboxylic acid, reference compound]
- Inhibition (%) of pressor response to angiotensin I ([1]; dose 1.4 mg/kg oral, 25 min): 40%
- Inhibition (%) of pressor response to angiotensin I ([1]; dose 1.4 mg/kg oral, 65 min): 30%

SMILES: CC(C)(C)C(=O)OCOC(=O)[C@@H]1CSC(c2ccccc2O)N1C(=O)CCSSCCC(=O)N1C(c2ccccc2O)SC[C@H]1C(=O)OCOC(=O)C(C)(C)C (stereo partly drawn) [Compound 49, Bis[(2,2-dimethyl-1-oxopropoxy)methyl](4R,4'R)-3,3'-[3,3'-dithiobis(propanoyl)]bis[2-(2-hydroxyphenyl)-4-thiazolidinecarboxylate]]
- Inhibition (%) of pressor response to angiotensin I ([1]; dose 1.3 mg/kg oral, 25 min): 35%
- Inhibition (%) of pressor response to angiotensin I ([1]; dose 1.3 mg/kg oral, 65 min): 60%

SMILES: CC(=O)Oc1ccccc1C1SC[C@@H](C(=O)O)N1C(=O)CCSSCCC(=O)N1C(c2ccccc2OC(C)=O)SC[C@H]1C(=O)O (stereo partly drawn) [Compound 3, (4R,4'R)-3,3'-[3,3'-Dithiobis(propanoyl)]bis[2-(2-acetoxyphenyl)-4-thiazolidinecarboxylic acid]]
- Inhibition (%) of pressor response to angiotensin I ([1]; dose 1.0 mg/kg oral, 25 min): 15%
- Inhibition (%) of pressor response to angiotensin I ([1]; dose 1.0 mg/kg oral, 65 min): 55%
- IC50 (Aldose reductase; [3]): 870 nM

SMILES: CCCSSC[C@@H](C)C(=O)N1CSC[C@H]1C(=O)O [Compound 43, (4R)-3-[(2S)-2-methyl-3-propyldisulfanylpropanoyl]-4-thiazolidinecarboxylic acid]
- Inhibition (%) of pressor response to angiotensin I ([1]; dose 1.0 mg/kg oral, 25 min): 70%
- Inhibition (%) of pressor response to angiotensin I ([1]; dose 1.0 mg/kg oral, 65 min): 40%

SMILES: C[C@H](CSSC[C@@H](C)C(=O)N1C(c2cccc3ccccc23)SC[C@H]1C(=O)O)C(=O)N1C(c2cccc3ccccc23)SC[C@H]1C(=O)O (stereo partly shown) [Compound 24]
- IC50 (Aldose reductase; [3]): 870 nM

SMILES: O=C(O)[C@@H]1CSC(c2ccccc2O)N1C(=O)CCSSCC1CCCO1 (stereo partly shown) [Compound 39]
- IC50 (Aldose reductase; [3]): 840 nM

SMILES: O=C(O)[C@@H]1CSC(c2cccc(O)c2)N1C(=O)CCSSCCC(=O)N1C(c2cccc(O)c2)SC[C@H]1C(=O)O (stereo partly shown) [Compound 10]
- IC50 (Aldose reductase; [3]): 730 nM

SMILES: O=C(O)[C@@H]1CSC(c2ccccc2)N1C(=O)CCSSCCC(=O)N1C(c2ccccc2)SC[C@H]1C(=O)O (stereo partly shown) [Compound 7]
- IC50 (Aldose reductase; [3]): 200 nM

SMILES: O=C(O)C1CCC(c2ccccc2O)N1C(=O)CCSSCCC(=O)N1C(C(=O)O)CCC1c1ccccc1O (single isomer, unassigned) [Compound 27]
- Inhibition (%) of pressor response to angiotensin I ([1]; dose 1.3 mg/kg oral, 25 min): 65%
- Inhibition (%) of pressor response to angiotensin I ([1]; dose 1.3 mg/kg oral, 65 min): 55%

SMILES: CCCSSCCC(=O)N1C(c2ccccc2O)SC[C@H]1C(=O)O (stereo partly drawn) [Compound 34, (4R)-2-(2-Hydroxyphenyl)-3-(3-propyldisulfanylpropanoyl)-4-thiazolidinecarboxylic acid]
- Inhibition (%) of pressor response to angiotensin I ([1]; dose 1.0 mg/kg oral, 25 min): 45%
- Inhibition (%) of pressor response to angiotensin I ([1]; dose 1.0 mg/kg oral, 65 min): 55%
- IC50 (Aldose reductase; [3]): 860 nM

SMILES: COc1ccc(C2SC[C@@H](C(=O)O)N2C(=O)[C@H](C)CS)cc1 (stereo partly drawn) [Compound 37A, (4R)3-[(2S)-3-mercapto-2-methylpropanoyl]-2-(4-methoxyphenyl)-4-thiazolidinecarboxylic acid, reference compound]
- Inhibition (%) of pressor response to angiotensin I ([1]; dose 1.0 mg/kg oral, 25 min): 40%
- Inhibition (%) of pressor response to angiotensin I ([1]; dose 1.0 mg/kg oral, 65 min): 20%

SMILES: C=CCSSC[C@@H](C)C(=O)N1C(c2ccc(OC)cc2)SC[C@H]1C(=O)O (stereo partly shown) [Compound 37]
- Inhibition (%) of pressor response to angiotensin I ([1]; dose 1.0 mg/kg oral, 25 min): 60%
- Inhibition (%) of pressor response to angiotensin I ([1]; dose 1.0 mg/kg oral, 65 min): 35%

SMILES: O=C(O)[C@@H]1CSC(c2ccccc2O)N1C(=O)CCS (stereo partly drawn) [Compound 1A, (4R)2-(2-hydroxyphenyl)-3-(3-mercaptopropanoyl)-4-thiazolidinecarboxylic acid, reference compound]
- Inhibition (%) of pressor response to angiotensin I ([1]; dose 1.0 mg/kg oral, 25 min): 55%
- Inhibition (%) of pressor response to angiotensin I ([1]; dose 1.0 mg/kg oral, 65 min): 35%

SMILES: C[C@@H]1O[C@@H](Oc2c(-c3ccc(O)c(O)c3)oc3cc(O)cc(O)c3c2=O)[C@H](O)[C@H](O)[C@H]1O [Control, Quercitrin, reference compound]
- IC50 (Aldose reductase): 90 nM

SMILES: C[C@H](CSSC[C@@H](C)C(=O)N1C(c2ccccc2O)SC[C@H]1C(=O)O)C(=O)N1C(c2ccccc2O)SC[C@H]1C(=O)O (stereo partly drawn) [Compound 2, (4R,4'R)-3,3'-[3,3'-Dithiobis[(2S)-2-methylpropanoyl]]bis[2-(2-hydroxyphenyl)-4-thiazolidinecarboxylic acid]]
- Inhibition (%) of pressor response to angiotensin I ([1]; dose 1.4 mg/kg oral, 25 min): 30%
- Inhibition (%) of pressor response to angiotensin I ([1]; dose 1.4 mg/kg oral, 65 min): 35%
- IC50 (Aldose reductase; [3]): 97 nM

SMILES: O=C(O)CCSSCCC(=O)N1C(c2ccccc2O)SC[C@H]1C(=O)O (stereo partly drawn) [Compound 41, (4R)-3-[3-(2-Carboxyethyldisulfanyl)propanoyl]-2-(2-hydroxyphenyl)-4-thiazolidinecarboxylic acid]
- Inhibition (%) of pressor response to angiotensin I ([1]; dose 1.3 mg/kg oral, 25 min): 50%
- Inhibition (%) of pressor response to angiotensin I ([1]; dose 1.3 mg/kg oral, 65 min): 60%
- IC50 (Aldose reductase; [3]): 20 nM
